Patent US6403554B2, “Polyunsaturated fatty acid derivatives and their use” (Ardenia Investments Ltd., priority 1998, dated 2002)
One block for each compound: values may come before it.

Columns and labels:
[1] = system: antibody-forming cells (AFC) in the spleen; test: Influence of rat AFP/compound complex and compound alone on humoral immune response, C57B1/6 male mice; format: in vivo; details: compound alone, 5th day
Description: The influence of complexes of AFP with one of the title compounds 1-4, 1a-4a, 5-20 as well as their basic components on humoral immune response was estimated by counting the quantity of antibody-forming cells (AFC) in the mice spleen.
0.15 ml of AFP/Compound 7 complex (1:200) was administered intravenously to 6 male mice of C57B1/6 line (weight 18-22 g) in the dose of 9 μg of AFP and 91 μg of compound 7 per capita. Simultaneously, a suspension of 5·10^7 sheep erythrocytes was injected intraperitoneally (0.2 ml per capita). In the group with compound 7 mice were injected intravenously by one in the dose of 91 μg. Animals of group with AFP received 9 μg of AFP. Mice of control group were injected intravenously with equal volume of saline. AFP/Compound 7 complex effect on humoral immune response was analyzed by counting the quantity of AFC in the spleen according to Cunningham (per 10^6 spleen cells and per spleen).
0.15 ml of AFP/Compound 15 complex (1:200) was administered intravenously to 6 mice males of C57B1/6 line (weight 18-22 g) in the dose of 9 μg of AFP and 91 μg of compound 15 per capita. Simultaneously, a suspension of 5·10^7 sheep erythrocytes was injected intraperitoneally (0.2 ml per capita). In the group receiving compound 15, the mice were injected intravenously by one in the dose of 91 μg. Animals in the AFP-group received 9 μg of AFP. Mice in the control group were injected intravenously with an equal volume of saline. The effect of the AFP/Compound 15 complex on humoral immune response was analyzed by counting the quantity of AFC in the spleen according to Cunningham (per 10^6 spleen cells and per spleen).
0.15 ml of AFP/Compound 1 complex was administered intravenously to 6 mice males of C57B1/6 line (weight 18-22 g) in the dose of 9 μg of AFP and 45.5 μg of compound 1 per capita. Simultaneously, a suspension of 5·10^7 sheep erythrocytes was injected intraperitoneally (0.2 ml per capita). In the group with compound 1 mice were injected intravenously by one in the dose of 45.5 μg. Animals of group with AFP received 9 μg of AFP. Mice in the control group were injected intravenously with an equal volume of saline. Complex AFP/Compound 1 effect on humoral immune response was analyzed by counting the quantity of AFC in the spleen according to Cunningham (per 10^6 spleen cells and per spleen).

[2] = system: human AFP (alpha-fetoprotein); details: International Application PCT/EP99/04201; cited from earlier work
AFP = target: T1, AFP (Homo sapiens, UniProt P02771); details: International Application PCT/EP99/04201; cited from earlier work
T1 construct: from tissue; host or cells: human cord blood
T1 sequence (P02771 19-609): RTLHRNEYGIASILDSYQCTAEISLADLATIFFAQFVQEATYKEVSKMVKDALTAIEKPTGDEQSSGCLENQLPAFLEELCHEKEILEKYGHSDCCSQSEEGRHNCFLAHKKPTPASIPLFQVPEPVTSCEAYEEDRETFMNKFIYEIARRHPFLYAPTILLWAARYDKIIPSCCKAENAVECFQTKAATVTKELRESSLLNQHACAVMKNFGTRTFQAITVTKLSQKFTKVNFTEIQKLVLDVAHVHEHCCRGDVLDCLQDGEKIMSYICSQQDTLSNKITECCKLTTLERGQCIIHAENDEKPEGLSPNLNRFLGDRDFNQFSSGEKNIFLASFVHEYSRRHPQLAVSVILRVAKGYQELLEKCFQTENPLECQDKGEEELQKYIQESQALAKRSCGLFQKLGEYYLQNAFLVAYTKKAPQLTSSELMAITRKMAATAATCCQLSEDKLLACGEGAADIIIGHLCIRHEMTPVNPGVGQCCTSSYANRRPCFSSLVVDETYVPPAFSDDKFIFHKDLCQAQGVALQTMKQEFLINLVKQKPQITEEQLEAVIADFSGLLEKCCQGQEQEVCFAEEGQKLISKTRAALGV

endothelial cells = details: cited from earlier work
human AFP = target: T2, human AFP (Homo sapiens, UniProt P02771); test: AFP binding: competitive substitution of [3H]arachidonic acid from the protein's binding site
T2 construct: from tissue; host or cells: human cord blood
Description: To tubes containing […] AFP in 1 ml 0.1 M bicarbonate buffer and 0.7 pmol [^3H]arachidonic acid and increasing amounts (5-5000 pmol) of arachidonic acid or any one of the title compounds 1-4, 1a-4a, and 5-20 were added. The tubes were incubated for 2 hr at room temperature. To separate protein-bound and free fractions of [^3H] arachidonic acid, tubes were incubated at 4° C. for 15 min with dextran covered activated carbon (0.5% suspension). The carbon was sedimented by centrifugation at 3000×g, aliquotes were added to 10 ml scintillating mixture and the vials were measured in a beta-counter.
The binding parameters of arachidonic acid and the compounds (1-4, 1a-4a, 5-16) the number of binding sites per protein molecule were calculated according to Scatchard (Scatchard O., Ann.N.Y.Acad.Sci. 51., p 660-664, 1949), and Blondeau (Blondeau J.-P., et al., Steroids, V. 32, N 5, P. 563-575, 1978).

rats = details: injected into rats; cited from earlier work

SMILES: CC1=C(/C=C/C(C)=C/C=C/C(C)=C/C(=O)NCCOP(=O)(O)O)C(C)(C)CCC1 [Compound 1, N-(all-trans-Retinoyl)-O-phospho-2-aminoethanol]
relative amount of AFC ([1]; 45.5 μg/mouse i.v.): 413.1±31.5 cells per 10^6 spleen cells
total AFC amount ([1]; 45.5 μg/mouse i.v.): 38.4±3.7 × 10^3

SMILES: CCCCC/C=C\C/C=C\C/C=C\C/C=C\CCCC(=O)NCCOP(=O)(O)O [Compound 5, N-(cis-5,8,11,14-eicosatetraenoyl)-O-phospho-2-aminoethanol]
molecules of N-AAP in micelle linked to AFP [2]: up to 300 molecules

SMILES: CCCCC/C=C\C/C=C\C/C=C\C/C=C\CCCC(=O)NCCOP(=O)(O)O [Compound 5, N-arachidonoyl-o-phospho-2-aminoethanol]
Molecules of compound in the micelle reversibly linked to AFP (AFP): up to 300 molecules

SMILES: CCCCC/C=C\C/C=C\C/C=C\C/C=C\CCCC(=O)N[C@H](C(=O)O)[C@@H](C)OP(=O)(O)O [Compound 7, N-(cis-5,8,11,14-eicosatetraenoyl)-O-phospho-L-threonine]
relative amount of AFC ([1]; 91 μg/mouse i.v.): 574.9±39.6 cells per 10^6 spleen cells
total AFC amount ([1]; 91 μg/mouse i.v.): 60.4±5.4 × 10^3

SMILES: CC/C=C\C/C=C\C/C=C\C/C=C\C/C=C\CCCC(=O)N[C@H](C(=O)O)[C@@H](C)OP(=O)(O)O [Compound 15, N-(cis-5,8,11,14,17-eicosapentaenoyl)-O-phospho-L-threonine]
relative amount of AFC ([1]; 91 μg/mouse i.v.): 594.7±41.4 cells per 10^6 spleen cells
total AFC amount ([1]; 91 μg/mouse i.v.): 70.8±8.2 × 10^3

SMILES: CCCCCCCC/C=C\CCCCCCCCCCCC(N)=O [Erucamide, 13-docosenamide]
inflammatory effects (endothelial cells): does not promote proliferation of endothelial cells or induce inflammatory effects
proliferation of endothelial cells (endothelial cells): does not promote proliferation of endothelial cells

Kd (human AFP): 16.7 nM
n (number of binding sites per protein molecule) (human AFP; three independent determinations, Scatchard): > 1.2
SMILES: CCCCC/C=C\C/C=C\C/C=C\C/C=C\CCCC(=O)O [arachidonic acid]

SMILES: CCCCCCCC/C=C\CCCCCCCC(N)=O [cis-9,10-octadecenoamide]
physiological sleep (rats): induced physiological sleep
